{"source": "paper PMC3966057", "about": "(Theranostics, 2014)", "key": {"A549 tumors": {"system": "A549 tumors", "test": "18F-DPA-714 PET imaging of A549 xenograft tumor model", "type": "in vivo, mouse", "conditions": "PET 1 h p.i., tumor volume 100-300 mm^3, athymic nude mice, mean ± SD"}, "INS-1 tumors": {"system": "INS-1 tumors", "test": "18F-DPA-714 PET imaging of INS-1 xenograft tumor model", "type": "in vivo, mouse", "conditions": "PET 1 h p.i., tumor volume 100-300 mm^3, athymic nude mice, mean ± SD"}, "U87MG tumors": {"system": "U87MG tumors", "test": "18F-DPA-714 PET imaging of U87MG xenograft tumor model", "type": "in vivo, mouse", "conditions": "PET 1 h p.i., tumor volume 100-300 mm^3, athymic nude mice, mean ± SD"}, "4T1 tumors": {"system": "4T1 tumors", "test": "18F-DPA-714 PET imaging of 4T1 xenograft tumor model", "type": "in vivo, mouse", "conditions": "PET 1 h p.i., tumor volume 100-300 mm^3, FVB mice, mean ± SD"}, "HT29 tumors": {"system": "HT29 tumors", "test": "18F-DPA-714 PET imaging of HT29 xenograft tumor model", "type": "in vivo, mouse", "conditions": "PET 1 h p.i., tumor volume 100-300 mm^3, athymic nude mice, mean ± SD"}, "RAW264.7 cells": {"system": "RAW264.7 cells", "test": "RAW 264.7 macrophage cell efflux of 18F-DPA-714", "type": "cell-based, mouse", "conditions": "2 h incubation with tracer"}}}
{"smiles": "CCN(CC)C(=O)Cc1c(-c2ccc(OCC[18F])cc2)nn2c(C)cc(C)nc12", "note": "[18F-DPA-714]", "values": [{"measurement": "A549 tumor uptake of 18F-DPA-714", "setting": "A549 tumors", "result": "0.46 ± 0.28", "unit": "%ID/g"}, {"measurement": "INS-1 tumor uptake of 18F-DPA-714", "setting": "INS-1 tumors", "result": "1.13 ± 0.33", "unit": "%ID/g"}, {"measurement": "U87MG tumor uptake of 18F-DPA-714", "setting": "U87MG tumors", "result": "1.69 ± 0.67", "unit": "%ID/g"}, {"measurement": "4T1 tumor uptake of 18F-DPA-714", "setting": "4T1 tumors", "result": "1.22 ± 0.55", "unit": "%ID/g"}, {"measurement": "HT29 tumor uptake of 18F-DPA-714", "setting": "HT29 tumors", "result": "0.91 ± 0.08", "unit": "%ID/g"}, {"measurement": "Tracer retention after 1 h efflux as share of uptake", "setting": "RAW264.7 cells", "result": "around 50%"}]}
